From patent US6294542A, “Pyrimidinone compounds, pharmaceutical compositions containing the compounds and the process for preparing the same” (Boryung Pharmaceutical Co. Ltd., priority 1998, dated 2001)

Key:
[1] = Acute Toxicity Test (oral, mice); assay type: in vivo; settings: for LD50: mouse, in vivo, po
Experimental: Respective 5 mice of ICR system, which was distributed from Korean Laboratory Animal Center, were bred in a polycarbonate breeding box at a breeding environment of 23±1° C. of temperature, 55±5% of humidity, 10-15 times/hr of evacuation, 12 hr cycle of fluorescent light luminance, and 150-300 Lux of illumination.
After observing the mice for one week of acclimation breeding period, only normal mice were selected for laboratory work. The mice were fed with sterilized feed for laboratory animals, which was made by Cheil Jedang Co.,Ltd, and supplied with purified water to drink.
During the acclimation period, mice, who were evaluated to be healthy, were weighed and divided into groups randomly. Individual identification of laboratory animals was performed by indumentum pigment display and tag display per breeding box.
Establishment of dose was carried out according to a result of preliminary test in such a manner that a maximum dose group for both male and female was set to 5000 mg/kg and azeotropy was set to 1.71. Medium-high, medium and medium-low dose groups were respectively set as follows and a control group was administrated with physiological saline for injection.
Before administration of testing substances, body weight of the laboratory animals was in the range of 24-28 g in case of male and in the range of 19-28 g in case of female, respectively. The laboratory animals were aged 6 weeks.
Preparation of the testing substances was dissolved in physiological saline before administration. Dose was calculated according to the body weight which was measured before administration and dispensed by oral administration to a mouse who was in abrosia for 18 hours before testing.
Observation of clinical symptom such as general change, toxic symptom and mortality was performed for all laboratory animals once an hour during 6 hours after administration on the very administration day, and once a day from the next day to 14th day of administration.
Administration group, who was administered with testing substances, and the control group were weighed on the administration day, first, third, seventh, tenth and fourteenth days from the administration at a predetermined time for all animals who were alive.
After finish of the test, all animals were slightly anesthetized with ether and bleeding-killed. Appearance and internal organs of the animals were examined with naked eye carefully. Animals, who died during the text, were examined in the same manner.

[2] = test system: Angiotensin II-induced pressor response; assay: In vivo Angiotensin II antagonism in conscious normotensive rats; settings: Rattus norvegicus, po; P.O.; conscious normotensive male SD rats; Angiotensin II 0.1 μg/kg; read-out: ID50 (dose of test compound necessary to produce 50% inhibition of Angiotensin II-induced pressor response)
Experimental: The antagonistic activity of the compound (I) against the angiotensin II, which is prepared by the process according to a preferred embodiment of the invention, was evaluated with relation to rats.
In vivo Angiotensin II antagonism in conscious normotensive rats.
Male SD rats (Charles River Japan, 9 weeks, 300-350 g) were anesthetized with pentobarbital at 50 mg/kg i.p. Both the left femoral artery and the right femoral vein were cannulated. A heparin-filled catheter (50U/ml) was tunneled subcutaneously (s.c.) to the dorsal side of the neck and exteriorized.
Rats were permitted to recover overnight from anesthesia and allowed free access to water, but food was withheld.
The next day, the femoral artery catheter was connected to a pressure transducer (COBE 041-500-508, USA) coupled to a polygraph (GRASS Model 7, USA) to monitor arterial blood pressure. After an appropriate equilibration period, Angiotensin II (0.1 μg/kg) was injected in the femoral vein three times during the control period.
Test compounds were then administered orally (p.o.) at a constant volume of 2 ml/kg.
Angiotensin II challenges were repeated at set times thereafter.
ID50 values, the dose of test compound necessary to produce 50% inhibition of Angiotensin II-induced pressor response, were calculated from peak inhibition percentage with several doses of test compound.

CCCCc1nc(C)c(CC(=S)N2CCCC2)c(=O)n1Cc1ccc(-c2ccccc2-c2nnn[nH]2)cc1 [Compound 8, 2-n-butyl-5-pyrrolidinothiocarbonylmethyl-6-methyl-3-[[2'-(1H-tetrazol-5-yl)-biphenyl-4-yl]methyl]-pyrimidine-4(3H)-one]
Final mortality (death number/total number) ([1]; female, 1000 mg/kg oral): 0/5 | Mortality (death number/survival number) ([1]; female, 1000 mg/kg oral, day 0): 0/5 | Mortality (death number/survival number) ([1]; female, 1000 mg/kg oral, day 1): 0/5 | Mortality (death number/survival number) ([1]; female, 1000 mg/kg oral, day 2): 0/5 | Mortality (death number/survival number) ([1]; female, 1000 mg/kg oral, day 3): 0/5 | Mortality (death number/survival number) ([1]; female, 1000 mg/kg oral, day 7): 0/5 | Mortality (death number/survival number) ([1]; female, 1000 mg/kg oral, day 14): 0/5 | Final mortality (death number/total number) ([1]; female, 1710 mg/kg oral): 0/5 | Mortality (death number/survival number) ([1]; female, 1710 mg/kg oral, day 0): 0/5 | Mortality (death number/survival number) ([1]; female, 1710 mg/kg oral, day 1): 0/5 | Mortality (death number/survival number) ([1]; female, 1710 mg/kg oral, day 2): 0/5 | Mortality (death number/survival number) ([1]; female, 1710 mg/kg oral, day 3): 0/5 | Mortality (death number/survival number) ([1]; female, 1710 mg/kg oral, day 7): 0/5 | Mortality (death number/survival number) ([1]; female, 1710 mg/kg oral, day 14): 0/5 | Final mortality (death number/total number) ([1]; female, 2924 mg/kg oral): 2/5 | Mortality (death number/survival number) ([1]; female, 2924 mg/kg oral, day 0): 2/5 | Mortality (death number/survival number) ([1]; female, 2924 mg/kg oral, day 1): 0/3 | Mortality (death number/survival number) ([1]; female, 2924 mg/kg oral, day 2): 0/3 | Mortality (death number/survival number) ([1]; female, 2924 mg/kg oral, day 3): 0/3 | Mortality (death number/survival number) ([1]; female, 2924 mg/kg oral, day 7): 0/3 | Mortality (death number/survival number) ([1]; female, 2924 mg/kg oral, day 14): 0/3 | Final mortality (death number/total number) ([1]; female, 5000 mg/kg oral): 4/5 | Mortality (death number/survival number) ([1]; female, 5000 mg/kg oral, day 0): 4/5 | Mortality (death number/survival number) ([1]; female, 5000 mg/kg oral, day 1): 0/1 | Mortality (death number/survival number) ([1]; female, 5000 mg/kg oral, day 2): 0/1 | Mortality (death number/survival number) ([1]; female, 5000 mg/kg oral, day 3): 0/1 | Mortality (death number/survival number) ([1]; female, 5000 mg/kg oral, day 7): 0/1 | Mortality (death number/survival number) ([1]; female, 5000 mg/kg oral, day 14): 0/1 | Final mortality (death number/total number) ([1]; male, 1000 mg/kg oral): 0/5 | Mortality (death number/survival number) ([1]; male, 1000 mg/kg oral, day 0): 0/5 | Mortality (death number/survival number) ([1]; male, 1000 mg/kg oral, day 1): 0/5 | Mortality (death number/survival number) ([1]; male, 1000 mg/kg oral, day 2): 0/5 | Mortality (death number/survival number) ([1]; male, 1000 mg/kg oral, day 3): 0/5 | Mortality (death number/survival number) ([1]; male, 1000 mg/kg oral, day 7): 0/5 | Mortality (death number/survival number) ([1]; male, 1000 mg/kg oral, day 14): 0/5 | Final mortality (death number/total number) ([1]; male, 1710 mg/kg oral): 2/5 | Mortality (death number/survival number) ([1]; male, 1710 mg/kg oral, day 0): 2/5 | Mortality (death number/survival number) ([1]; male, 1710 mg/kg oral, day 1): 0/3 | Mortality (death number/survival number) ([1]; male, 1710 mg/kg oral, day 2): 0/3 | Mortality (death number/survival number) ([1]; male, 1710 mg/kg oral, day 3): 0/3 | Mortality (death number/survival number) ([1]; male, 1710 mg/kg oral, day 7): 0/3 | Mortality (death number/survival number) ([1]; male, 1710 mg/kg oral, day 14): 0/3 | Final mortality (death number/total number) ([1]; male, 2924 mg/kg oral): 3/5 | Mortality (death number/survival number) ([1]; male, 2924 mg/kg oral, day 0): 3/5 | Mortality (death number/survival number) ([1]; male, 2924 mg/kg oral, day 1): 0/2 | Mortality (death number/survival number) ([1]; male, 2924 mg/kg oral, day 2): 0/2 | Mortality (death number/survival number) ([1]; male, 2924 mg/kg oral, day 3): 0/2 | Mortality (death number/survival number) ([1]; male, 2924 mg/kg oral, day 7): 0/2 | Mortality (death number/survival number) ([1]; male, 2924 mg/kg oral, day 14): 0/2 | Final mortality (death number/total number) ([1]; male, 5000 mg/kg oral): 4/5 | Mortality (death number/survival number) ([1]; male, 5000 mg/kg oral, day 0): 2/5 | Mortality (death number/survival number) ([1]; male, 5000 mg/kg oral, day 1): 1/3 | Mortality (death number/survival number) ([1]; male, 5000 mg/kg oral, day 2): 0/2 | Mortality (death number/survival number) ([1]; male, 5000 mg/kg oral, day 3): 0/2 | Mortality (death number/survival number) ([1]; male, 5000 mg/kg oral, day 7): 1/2 | Mortality (death number/survival number) ([1]; male, 5000 mg/kg oral, day 14): 0/1 | LD50 ([1]; female mice): 4060 mg/kg | LD50 ([1]; male mice): 3170 mg/kg | ED50 [2]: 0.93 mg/kg
